Results: US11026423B2, “Herbicidal compositions and methods” (SePRO Corporation, priority 2013, dated 2021)

Key:
[1] = system: P. amaranth; assay: May field trial: weed control in cotton field; assay type: in vivo, Amaranthus palmeri; settings: May planting field trial, pre-emergent, 1 and 9 weeks post treatment
Experimental: (§1) Cotton was planted in fields in May. The field was then over seeded with P. amaranth. […] Within 24 hours of application of the herbicide, 0.25 inches of rain was recorded. An additional planting of cotton, by hand, was conducted in August with multiple rates.

[2] = system: cotton; assay: Greenhouse trial: cotton response across soil types and moisture conditions; assay type: in vivo
Source text: In addition to these field trials, greenhouse studies were also undertaken. […] Four soil types were examined: a predominantly clay soil, a sandy loam soil, a loamy peat soil, and a sandy soil.

[3] = system: cotton; assay: May field trial: phytotoxicity to cotton; settings: May planting field trial, pre-emergent, 1 and 9 weeks post treatment
Experimental: as §1

[4] = system: P. amaranth; assay: Greenhouse trial: P. amaranth control across soil types and moisture conditions; assay type: in vivo, Amaranthus palmeri; settings: low moisture conditions across some soil types
Source text: In addition to these field trials, greenhouse studies were also undertaken. The greenhouse studies evaluated the use of fluridone, fomesafen, and the combination of fluridone and fomesafen as well as the affect of soil types, and moisture conditions. Four soil types were examined: a predominantly clay soil, a sandy loam soil, a loamy peat soil, and a sandy soil. The moisture conditions evaluated were at 0.2 inches of water, and 1.5 inches of water.

[5] = system: sprangletop (Leptochloa sp.); assay: Example 6 Shafter almond orchard: sprangletop control; assay type: in vivo; settings: 211 DAT, three highest rates of fluridone
Experimental: (§2) Field trials were conducted in California to determine sweet almond (Prunus dulcis) tolerance to fluridone and efficacy of fluridone in an irrigated orchard environment. Trial locations included a two-year old almond stand in Kerman, Calif. and a six-year old stand in Shafter, Calif. The soil in both locations is classified as a sandy loam. Applications prior to emergence of weeds (PRE) of herbicides were made in the month of January in Kerman and in the month of January in Shafter. […] Rainfall (0.32 in (about 0.813 cm)) and irrigation (1.5 in (about 3.81 cm)) one day after PRE applications were used to incorporate herbicides into the soil at the Kerman and Shafter locations, respectively. Both sites were irrigated as needed during the growing season to avoid drought conditions. Visual evaluations of crop injury and weed control were made monthly on a 0 to 100% scale. Postemergent (POST) broadcast applications of a non-selective, contact herbicide was broadcast across all treatments in Kerman prior to the 90 days after treatment and 119 days after treatment (DAT) ratings. Thus, data from those ratings dates was not evaluated. No POST applications were made in Shafter.

[6] = system: yellow nutsedge; assay: Example 6 Shafter almond orchard: yellow nutsedge control; assay type: in vivo, Cyperus esculentus L.
Experimental: as §2

[7] = system: yellow nutsedge (Cyperus esculentus L.); assay: Example 6 Kerman almond orchard: yellow nutsedge control; assay type: in vivo; settings: 184 DAT, 0.4 and 0.8 lb fluridone/ac
Experimental: as §2

[8] = system: Palmer amaranth (Amaranthus palmeri); assay: Example 9 greenhouse: preemergence Palmer amaranth control under varying irrigation; assay type: in vivo; settings: fluridone 0.2 lb/ac, coarse sand soil, irrigation 0 to 1.0 inch
Experimental: An experiment was conducted beginning in the month of August in a greenhouse. The greenhouse was arranged as a randomized complete block with four replicates. A coarse sand soil was used to fill four inch diameter pots. […] Overhead irrigation occurred eight and 10 days after treatment, applying an additional 0.25 inch (abou 0.635 cm) of water to each pot. Palmer amaranth control was determined by counting seedlings in each pot weekly.

[9] = system: redmaids (Calandrinia sp.); assay: Example 7 Kerman vineyard: redmaids control; assay type: in vivo; settings: 58 DAT, fluridone 0.2, 0.4 and 0.8 lb/ac
Source text: (§3) Trials were placed in grape vineyards located in Kerman and Kingsburg, Calif. The soil in both locations is classified as a sandy loam. Preemergent herbicide applications were made in the month of January in Kerman and in the month of March in Kingsburg. […] Additionally, indaziflam applied at 0.065 lb/ac was included at the Kingsburg site. […] Both sites were irrigated as needed during the growing season to avoid drought conditions. Visual evaluations of crop injury and weed control were made monthly on a 0 to 100% scale. Cultivation occurred in the row centers at the Kerman location following the 58 DAT evaluations, and therefore, the Kerman results following 58 DAT were not evaluated. No cultivation occurred in Kingsburg during the trial period.

[10] = system: weeds; assay: Example 12 UC Davis almond orchard: weed control; assay type: in vivo; settings: 1 to 5 months after treatment, all treatment rates
Experimental: (§4) A field trial was conducted in northern California for weed control and safety in one peach orchand and two almond orchards. The herbicide applications were made between January and February when the tree crops were dormant.

[11] = system: hare barley, annual sowthistle, black medic, chickweed, and redstem filaree; assay: Example 12 Arbuckle almond orchard: weed control; assay type: in vivo; settings: approximately 1, 2 and 3 months after treatment
Experimental: as §4
Weed control and crop safety were evaluated at approximately 1, 2, and 3 months after treatment. Weed pressure was fairly heavy, and uniform over the trial site. Populations of hare barley, annual sowthistle, black medic, chickweed, and redstem filaree were recorded.

[12] = system: weeds in walnut orchard; assay: Example 11 walnut orchard field trial: weed efficacy; assay type: in vivo
Experimental: A field trial was performed in a dormant 4th year walnut orchard (Chandler variety) located near Stockton, Calif. The trial was initiated in December for weed efficacy studies and crop tolerance studies. Plots were about 8 feet by about 18 feet (about 2.43 meters by about 5.49 meters) with one tree per plot arranged in a randomized complete block design with three replications. Fluridone, flumioxazin, Roundup, and glufosinate ammonium were tested.

[13] = system: hairy fleabane; assay: Example 8 Elderwood orange orchard: hairy fleabane control; assay type: in vivo
Experimental: (§5) A field trial was conducted in California to evaluate tolerance of non-bearing “Cara Cara” orange (Citrus sinensis) to fluridone and the efficacy of fluridone in an irrigated orchard environment. The trial was initiated in the month of January in Elderwood, Calif. The soil on the trial site was classified as a clay. […] Rainfall (0.44 in. (about 1.12 cm)) that occurred in the first week following PRE application incorporated the herbicides into the soil. The site was irrigated as needed during the growing season to avoid drought conditions. Visual evaluations of crop injury and weed density were made on a 0 to 100% scale. Additionally, plant counts per plot of weed species present were conducted for each evaluation period.

[14] = system: crabgrass (Digitaria spp.); assay: Example 6 Kerman almond orchard: crabgrass control; assay type: in vivo; settings: 184 DAT, 0.4 and 0.8 lb fluridone/ac
Experimental: as §2

[15] = system: weeds (total weed control); assay: Example 10 irrigated walnut, Stockton, Calif.: total weed control; assay type: in vivo; settings: fluridone 0.2 to 0.4 lb/ac
Experimental: An experiment with walnut was conducted during the months of December to the month of June the following year in Stockton, Calif. Plots were arranged as a randomized complete block with three replicates. Plots were 8 ft×8 ft (about 2.43 meters by meters)(1 tree/plot). The soil on the site is classified as a clay loam. […] The site received approximately four inches (about 10.16 cm) of rainfall in the first 35 DAT, and an additional 2.9 inches (about 7.366 cm) rainfall and 6.5 inches (about 16.51 cm) irrigation the next 124 days thereafter. Visually evaluations of weed control were made monthly on a 0 to 100% scale.

[16] = system: witchgrass (Panicum capillare L.); assay: Example 8 Elderwood orange orchard: witchgrass control; assay type: in vivo; settings: 168 DAT, three highest fluridone rates; indaziflam
Experimental: as §5

[17] = system: Palmer amaranth; assay: Example 10 dryland cotton field, Jackson, Tenn.: Palmer amaranth control; assay type: in vivo, Amaranthus palmeri; settings: fluridone 0.1 to 0.5 lb/ac
Experimental: An experiment with cotton was conducted during the months of April to the month of June in Jackson, Tenn. Plots were arranged as a randomized complete block with four replicates. Plots were 6.3 ft by 30 ft (about 1.92 meteres by about 9.114 meters). The soil on the site was classified as a silt loam soil. […] The site received approximately four inches (about 10.16 cm) of rainfall in the first 35 days after treatment (DAT). Visually evaluations of Palmer amaranth control were made twice a month on a 0 to 100% scale.

[18] = system: hairy fleabane; assay: Example 6 Shafter almond orchard: hairy fleabane control; assay type: in vivo, Conyza bonariensis; settings: 211 DAT, fluridone 0.4 and 0.8 lb/ac
Experimental: as §2

[19] = system: spotted spurge (Euphorbia maculate); assay: Example 6 Shafter almond orchard: spotted spurge control; assay type: in vivo; settings: 211 DAT, fluridone 0.4 and 0.8 lb/ac
Experimental: as §2

[20] = system: "Cara Cara" orange (Citrus sinensis); assay: Example 8 field trial: orange tolerance; assay type: in vivo; settings: Elderwood, PRE application, trial period
[21] = system: prostrate spurge (Euphorbia supine Raf.); assay: Example 8 Elderwood orange orchard: prostrate spurge control; assay type: in vivo; settings: 168 DAT, PRE
Experimental: as §5

[22] = system: 'Thompson' grape (Vitis vinifera); assay: Example 7 field trials: grape tolerance; assay type: in vivo; settings: PRE application, Kerman and Kingsburg
Source text: as §3

[23] = system: cotton plants; assay: Example 3 growth chamber trial, pre-emergent application on cotton; assay type: in vivo
Experimental: 0.1 L conical assay tubes were planted with a cotton or soybean seed in a sample of sandy loam soil. Seven tubes were prepared for each herbicide application rate. Application of a herbicide composition was performed after planting the seed and prior to the plant's emergence from the soil (i.e., pre-emergent or PRE). Approximately 0.15 inches of water was applied to each pot four hours after application. […] The greenhouse was maintained at 26±5° C. during the day and 11±1° C. during the night.

[24] = system: sweet almond (Prunus dulcis); assay: Example 6 field trials: almond tolerance; assay type: in vivo; settings: Kerman, any PRE herbicide application
Experimental: as §2

[25] = system: cotton plants; assay: Pot demonstration of safening in cotton (FIG. 4); assay type: in vivo; settings: three cotton plants planted, flumioxazin only (FIG. 4)
Source text: Flumioxazin is another herbicide member of the PPO-inhibitor class that is commonly applied pre-emergent to control weeds, and has the chemical name 2-[7-fluoro-3,4-dihydro-3-oxo-4-(2-propynyl)-2H-1,4-benzoxazin-6-yl]-4,5,6,7-tetrahydro-1H-isoindole-1,3(2H)-dione. In certain embodiments of the present invention, flumioxazin can be applied to soil at a rate of about 0.015 pounds per acre to about 0.25 pounds per acre. In other embodiments, flumioxazin can be applied to soil at a rate of about 0.03 pounds per acre to about 0.25 pounds per acre. In another embodiment, flumioxazin can be applied to soil at a rate of about […] to about 0.2 pounds per acre.

**Q.** How did the “control of P. amaranth” value [1] turn out when `CS(=O)(=O)NC(=O)c1cc(Oc2ccc(C(F)(F)F)cc2Cl)ccc1[N+](=O)[O-]` [fomesafen, 5-[2-chloro-4-(trifluoromethyl)phenoxy]-N-(methylsulfonyl)-2-nitrobenzamide] was run?
**A.** showed control of P. amaranth

**Q.** And the “growth of treated cotton plants” value ([2]; 4 weeks after planting (FIG. 3A, 3B))?
**A.** stunting effect on cotton

**Q.** And the stunting ([2]; less than ideal growing conditions, compared to fluridone and fluridone/fomesafen treatments)?
**A.** some stunting was observed

**Q.** And the phytotoxicity [3]?
**A.** no phytotoxicity was observed

**Q.** What about the P. amaranth control [4] of the same compound?
**A.** not able to provide complete P. amaranth control

**Q.** For “1-methyl-3-phenyl-5-[3-(trifluromethyl)phenyl]-4(1H)-pyridone [fluridone]”, which “sprangletop control compared to flumioxazin” value [5] is on record?
**A.** significantly greater control than flumioxazin

**Q.** What about the “yellow nutsedge control compared to 0.1 and 0.2 lb fluridone/ac” value ([6]; 211 DAT, fluridone 0.4 and 0.8 lb/ac) of the same compound?
**A.** significantly greater control

**Q.** What about the “yellow nutsedge control compared to flumioxazin” value ([6]; fluridone applied at every rate) of the same compound?
**A.** significantly greater than flumioxazin

**Q.** What about the “yellow nutsedge control compared to flumioxazin” value [7] of the same compound?
**A.** similar

**Q.** And the “preemergent Palmer amaranth control vs amount of irrigation” value [8]?
**A.** increasing the amount of irrigation increases preemergent control

**Q.** What about the “redmaids control greater than flumioxazin” value [9] of the same compound?
**A.** 13.5%

**Q.** And the weed control [10]?
**A.** good weed control

**Q.** And the “control of all weeds present” value [11]?
**A.** ~100%

**Q.** And the “weeds observed in plots” value ([12]; 129 DAT, lower rates)?
**A.** Some weeds were observed

**Q.** And the “weeds observed in plots” value ([12]; 159 DAT, fluridone applied at lower rates)?
**A.** lambsquarter, bindweed, spurge and knotweed were observed

**Q.** And the hairy fleabane control [13]?
**A.** Neither fluridone nor indaziflam effectively controlled

**Q.** What about the “crabgrass control greater than flumioxazin” value [14] of the same compound?
**A.** 10%

**Q.** And the total weed control [15]?
**A.** good total weed control

**Q.** What about the control of witchgrass [16] of the same compound?
**A.** 100%

**Q.** What about the Palmer amaranth control [17] of the same compound?
**A.** good control of Palmer amaranth

**Q.** And the “hairy fleabane control compared to 0.1 and 0.2 lb fluridone/ac” value [18]?
**A.** significantly greater control

**Q.** What about the “spotted spurge control compared to 0.1 and 0.2 lb fluridone/ac” value [19] of the same compound?
**A.** significantly greater control

**Q.** Which phytotoxicity [20] does the source give for `Cc1ccc2c(c1)[C@H](Nc1nc(N)nc(C(C)F)n1)[C@@H](C)C2` (mixture of isomers) [indaziflam, N-[(1R,2S)-2,3-dihydro-2,6-dimethyl-1H-inden-1-yl]-6-[(1RS)-1-fluoroethyl]-1,3,5-triazine-2,4-diamine] here?
**A.** did not contribute to phytotoxicity

**Q.** What about the hairy fleabane control [13] of the same compound?
**A.** Neither fluridone nor indaziflam effectively controlled

**Q.** And the control of witchgrass [16]?
**A.** 100%

**Q.** What about the prostrate spurge control [21] of the same compound?
**A.** 95%

**Q.** And the phytotoxicity [22]?
**A.** Phytotoxicity was not observed

**Q.** Which results are given for `C#CCN1C(=O)COc2cc(F)c(N3C(=O)C4=C(CCCC4)C3=O)cc21` [flumioxazin, 2-[7-fluoro-3,4-dihydro-3-oxo-4-(2-propynyl)-2H-1,4-benzoxazin-6-yl]-4,5,6,7-tetrahydro-1H-isoindole-1,3(2H)-dione]?
**A.** crop stand (number of viable plants) ([23]; 0.05 lb/A flumioxazin, seven tubes): one surviving plants out of seven; growth stage / growth stunting ([23]; 26 days after treatment, flumioxazin 0.05 lb/A, scale 0-3): the most growth stunting; injury to cotton plants ([23]; application rates greater than 0.025 lb/A flumioxazin): significantly injured; cotyledons with excessive wrinkling and brown spotting due to herbicide injury ([23]; flumioxazin alone 0.05 lb/A, 26 days after treatment): all of the cotyledons show brown spotting; lethality to cotton plants ([23]; flumioxazin at the highest rates (FIG. 15)): fatal to cotton plants; phytotoxicity [24]: Phytotoxicity was not observed; weeds observed in plots ([12]; 129 DAT, lower rates): Some weeds were observed; phytotoxicity [22]: Phytotoxicity was not observed; emergence of cotton plants from the soil [25]: only one emerged from the soil
